Data as given in paper PMC6179041, “The insight of in vitro and in silico studies on cholinesterase inhibitors from the roots of Cimicifuga dahurica (Turcz.) Maxim” (Journal of Enzyme Inhibition and Medicinal Chemistry, 2018).
Entries after “also recorded” stand apart in the source; their conditions may differ. Where two headings read alike, the source gives them in different places.

What was measured:
AChE = biological target: T1, AChE (Electrophorus electricus, UniProt O42275); experiment: biochemical; format: biochemical; details: for inhibition at 100 µM: read-out: AChE inhibitory activity at 100 μM (%)
T1 construct: purchased Sigma-Aldrich C3389

BuChE = BuChE (Equus caballus, UniProt P81908); experiment: biochemical; format: biochemical; details: for inhibition at 100 µM: read-out: BuChE inhibitory activity at 100 μM (%); for Binding mode (BuChE): Lineweaver-Burk plots
[1] = 100 μM compound, mean ± SEM, tested three times
[2] = mean ± SEM, tested three times, read-out: BuChE IC50
[3] = mean ± SEM, tested three times, read-out: AChE IC50
[4] = secondary replot, read-out: Ki (μM) on BuChE

T1 sequence (O42275 24-633): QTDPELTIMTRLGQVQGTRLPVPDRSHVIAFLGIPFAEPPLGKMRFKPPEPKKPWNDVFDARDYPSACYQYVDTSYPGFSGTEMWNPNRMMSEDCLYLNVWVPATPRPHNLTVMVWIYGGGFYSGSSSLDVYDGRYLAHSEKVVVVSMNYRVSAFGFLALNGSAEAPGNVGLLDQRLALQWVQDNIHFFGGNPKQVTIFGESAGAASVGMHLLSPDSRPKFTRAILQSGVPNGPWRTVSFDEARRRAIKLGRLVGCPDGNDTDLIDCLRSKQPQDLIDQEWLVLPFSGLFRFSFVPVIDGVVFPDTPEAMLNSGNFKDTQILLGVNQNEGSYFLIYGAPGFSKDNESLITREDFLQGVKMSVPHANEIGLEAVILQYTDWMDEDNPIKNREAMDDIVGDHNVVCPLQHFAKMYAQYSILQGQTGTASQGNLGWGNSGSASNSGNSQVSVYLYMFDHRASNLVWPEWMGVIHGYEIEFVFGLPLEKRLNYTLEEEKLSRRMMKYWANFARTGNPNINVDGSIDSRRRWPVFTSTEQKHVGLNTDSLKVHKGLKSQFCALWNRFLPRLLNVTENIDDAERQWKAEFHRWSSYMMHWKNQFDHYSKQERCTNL
Sequence of BuChE (P81908 whole entry): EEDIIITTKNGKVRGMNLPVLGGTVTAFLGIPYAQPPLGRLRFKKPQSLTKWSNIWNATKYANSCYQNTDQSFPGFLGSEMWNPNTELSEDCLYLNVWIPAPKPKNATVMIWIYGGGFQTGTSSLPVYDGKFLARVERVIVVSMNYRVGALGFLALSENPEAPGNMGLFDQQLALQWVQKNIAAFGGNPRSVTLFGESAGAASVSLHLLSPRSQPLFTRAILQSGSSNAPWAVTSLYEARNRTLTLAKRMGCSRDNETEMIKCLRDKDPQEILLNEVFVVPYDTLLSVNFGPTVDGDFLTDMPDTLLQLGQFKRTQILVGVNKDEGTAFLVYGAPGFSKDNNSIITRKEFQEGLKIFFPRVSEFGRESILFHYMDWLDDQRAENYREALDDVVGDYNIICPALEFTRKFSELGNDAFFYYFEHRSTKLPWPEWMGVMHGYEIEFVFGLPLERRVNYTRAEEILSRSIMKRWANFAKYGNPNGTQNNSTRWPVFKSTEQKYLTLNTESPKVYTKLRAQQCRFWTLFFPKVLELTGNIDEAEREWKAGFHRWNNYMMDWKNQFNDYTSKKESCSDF

| Compound | inhibition at 100 µM (AChE) | IC50 (BuChE) | inhibition at 100 µM (BuChE) | also measured |
| --- | --- | --- | --- | --- |
| 3-O-β-D-xylopyranosyl-24S,25-dihydroxy-15-oxo-acta-(16R,23R)-16,23-monoxoside [Compound 17] |  |  |  | AChE inhibitory activity at 100 μM (%) (AChE; [1]): 47.1 ± 1.6%; BuChE inhibitory activity at 100 μM (%) (BuChE; [1]): 55.4 ± 0.8%; IC50 (BuChE; [2]): 84.1 ± 5.7 µM |
| COc1ccc(/C=C/C(=O)OCC(=O)c2ccc(O)c(O)c2)cc1O [Compound 1, cimiciphenone] |  |  |  | inhibition at 100 µM (AChE; [1]): 65.4 ± 0.9%; Binding mode (AChE) (AChE; Lineweaver-Burk plots): competitive inhibitor; also recorded: Competitive type (AChE); IC50 (AChE; [3]): 16.7 ± 1.9 µM; Ki (AChE; secondary replot): 16.2 ± 0.9 µM; inhibition at 100 µM (BuChE; [1]): 13.6 ± 0.7% |
| COC(=O)/C=C/c1ccc(O)c(OC)c1 [Compound 2, ferulic acid methyl ester] |  |  |  | inhibition at 100 µM (AChE; [1]): 58 ± 0.6%; IC50 (AChE; [3]): 52.4 ± 3.7 µM; inhibition at 100 µM (BuChE; [1]): 62.3 ± 0.3%; IC50 (BuChE; [2]): 37.1 ± 1.5 µM |
| CC(C)=CC=C1C(=O)N(C)c2ccccc21 [Compound 3, (E)-3‐(3′-methyl-2′-butenylidene)-1-methyl-2-indolinone] |  |  |  | inhibition at 100 µM (AChE; [1]): 53.8 ± 0.1%; IC50 (AChE; [3]): 95.8 ± 5.1 µM; inhibition at 100 µM (BuChE; [1]): 88.7 ± 1.3%; Binding mode (BuChE) (BuChE): noncompetitive mode; also recorded: Non-competitive type (BuChE); IC50 (BuChE; [2]): 13.8 ± 1.2 µM; Ki (BuChE; [4]): 4.9 ± 2.1 µM |
| CC(C)=CC=C1C(=O)Nc2ccccc21 [Compound 4, (E)-3‐(3′-methyl-2′-butenylidene)-2-indolinone] |  |  |  | inhibition at 100 µM (AChE; [1]): 61 ± 4.6%; IC50 (AChE; [3]): 48 ± 6.8 µM; inhibition at 100 µM (BuChE; [1]): 93.1 ± 0.6%; Binding mode (BuChE) (BuChE): noncompetitive mode; also recorded: Non-competitive type (BuChE); IC50 (BuChE; [2]): 6.5 ± 2.5 µM; Ki (BuChE; [4]): 3.5 ± 1.5 µM |
| C[C@@H]1C[C@H]2O[C@]3(O[C@@H]2C(C)(C)O)[C@H]1[C@@]1(C)CC[C@@]24C[C@@]25CC[C@H](O)C(C)(C)[C@@H]5CC=C4[C@]1(C)[C@H]3O [Compound 5, 7,8-didehydrocimigenol] | 43.1 ± 5.6% | 60.9 ± 1.2 µM | 53.6 ± 0.9% |  |
| CC(=O)O[C@@H]([C@H]1C[C@@H](C)[C@H]2[C@@](O)(O1)[C@H](O)[C@@]1(C)C3=CC[C@H]4C(C)(C)[C@@H](O)CC[C@@]45C[C@@]35CC[C@]21C)C(C)(C)O [Compound 6, 24-epi-24-O-acetyl-7,8-didehydroshengmanol] | 53.7 ± 1.6% | 90.9 ± 6 µM | 57.3 ± 0.3% | IC50 (AChE): 94.9 ± 3.5 µM |
| CC(=O)O[C@@H]1C[C@@]23C[C@@]24CC[C@H](O)C(C)(C)[C@@H]4CC=C3[C@]2(C)C[C@@H]3O[C@]4(C[C@@H](C)[C@@H]3[C@@]12C)O[C@H](O)[C@@]1(C)O[C@@H]41 [Compound 7, 25-triepoxy-12β-acetoxy-3β,26-dihydroxy-9,19-cyclolanost-7-ene] | 52 ± 0.1% |  | 41 ± 0.1% | IC50 (AChE): 92.1 ± 2.2 µM |
| CC(=O)OC(C)(C)C1OC23OC1CC(C)C2C1(C)CCC24CC25CCC(O)C(C)(C)C5CC=C4C1(C)C3O (stereo not shown) [Compound 8, 25-O-acetyl-7,8-didehydrocimigenol] | 55.4 ± 2.6% |  | 18 ± 0.4% | IC50 (AChE): 69.5 ± 1.2 µM |
| C=C(C)C1OC23OC1CC(C)C2C1(C)CCC24CC25CCC(O)C(C)(C)C5CC=C4C1(C)C3O (stereo not shown) [Compound 9, 25-anhydro-7,8-didehydrocimigenol] | 48.6 ± 0.6% | 35.1 ± 1.2 µM | 51 ± 1.9% |  |
| CC1CC2OC3(OC2C(C)(C)O)C1C1(C)CCC24CC25CCC(O)C(C)(C)C5CC=C4C1(C)C3O (stereo not drawn) [Compound 10, 24-epi-7,8-didehydrocimigenol] | 31.8 ± 0.5% |  | 41.1 ± 2.2% |  |
| CC(=O)OC(C)(C)[C@H]1O[C@@]23O[C@@H]1C[C@@H](C)[C@@H]2[C@@]1(C)CC[C@@]24C[C@@]25CC[C@H](O)C(C)(C)[C@@H]5CC[C@H]4[C@]1(C)[C@H]3O [Compound 11, 25-O-acetylcimigenol] | 15.8 ± 4.3% |  | 14 ± 2.6% |  |
| CC(=O)O[C@H]([C@H]1C[C@@H](C)[C@H]2[C@@](O)(O1)[C@H](O)[C@@]1(C)C3=CC[C@H]4C(C)(C)[C@@H](O)CC[C@@]45C[C@@]35CC[C@]21C)C(C)(C)O [Compound 12, 24-epi-24-O-acetyl-7,8-didehydroshengmanol] | 28 ± 4% |  | 18.6 ± 0.3% |  |
| C=C(C)[C@H]1O[C@@]23O[C@@H]1C[C@@H](C)[C@@H]2[C@@]1(C)CC[C@@]24C[C@@]25CC[C@H](O)C(C)(C)[C@@H]5CC=C4[C@]1(C)[C@H]3O [Compound 13, 25-anhydrocimigenol] | 42.8 ± 0.8% |  | 44.9 ± 1.1% |  |
| CC(=O)OC(C)(C)C1OC23OC1CC(C)C2C1(C)CCC24CC25CCC(OC2OCC(O)C(O)C2O)C(C)(C)C5CC=C4C1(C)C3O [Compound 14, 25-O-acetyl-7,8-didehydrocimigenol 3-O-β-D-xylopyranoside] | 24.9 ± 6.2% | 22.6 ± 0.4 µM | 55 ± 0.7% | Ki (BuChE): 10.7 ± 1.3 µM; Binding mode (BuChE) (BuChE): competing with substrate; also recorded: Competitive type (BuChE) |
| C=C(C)[C@H]1O[C@@]23O[C@@H]1C[C@@H](C)[C@@H]2[C@@]1(C)CC[C@@]24C[C@@]25CC[C@H](O[C@@H]2OC[C@@H](O)[C@H](O)[C@H]2O)C(C)(C)[C@@H]5CCC4[C@]1(C)[C@H]3O (stereo partly drawn) [Compound 15, 25-anhydrocimigenol-3-O-β-D-xylopyranoside] | 37.1 ± 0.5% | 33.3 ± 5 µM | 60.7 ± 0.6% |  |
| CC1CC2OC3(OC2C(C)(C)O)C1C1(C)CCC24CC25CCC(OC2OCC(O)C(O)C2O)C(C)(C)C5CC=C4C1(C)C3O [Compound 16, 24-epi-7,8-didehydrocimigenol 3-O-β-D-xylopyranoside] | 19 ± 2.5% | 31 ± 5.5 µM | 62 ± 0.8% |  |
| CC(=O)OC1C(OC2CCC34CC35CCC3(C)C6C(C)CC7OC6(OC7C(C)(C)O)C(O)C3(C)C5=CCC4C2(C)C)OCC(O)C1O (stereo not shown) [Compound 18, cimiricaside A] | 23.1 ± 6.8% | 51 ± 0.5 µM | 54.4 ± 1.3% |  |
| C=C(C)C1OC23OC1CC(C)C2C1(C)CCC24CC25CCC(OC2OCC(O)C(O)C2O)C(C)(C)C5CC=C4C1(C)C3O [Compound 19, 7,8-didehydro-25-anhydrocimigenol-3-O-β-D-xylopyranoside] | 21.5 ± 1.7% |  | 38.5 ± 0.1% |  |
